In ChEMBL document CHEMBL5335837, “Reinvestigation of diphenylmethylpiperazine analogues of pyrazine as new class of Plasmodial cysteine protease inhibitors for the treatment of malaria” (RSC Med Chem, 2024):
pIC50: −log10 of the molar value. Activity calls are given as the source filed them. The rule behind the calls is not given here.

Tests used:
Erythrocyte = assay: Hemolytic activity in human RBCs at 100 uM incubated for 2 hrs by microplate reader analysis; assay type: toxicity, cell-based
Plasmodium falciparum [1] = assay: Antimalarial activity against Plasmodium falciparum 3D7 assessed as reduction in parasite growth incubated for 48 to 50 hrs by microplate reader analysis; assay type: functional, organism-based; settings: for pIC50: Plasmodium falciparum, 3D7, read-out: IC50
[2] = Selectivity index, ratio of IC50 for cytotoxicity against african green monkey vero cells to IC50 for antimalarial activity against Plasmodium falciparum 3D7; assay type: toxicity, cell-based; settings: read-out: Ratio IC50
[3] = Selectivity index, ratio of IC50 for cytotoxicity against african green monkey vero cells to IC50 for antimalarial activity against Plasmodium falciparum W2; assay type: toxicity, cell-based; settings: read-out: Ratio IC50
Plasmodium falciparum [4] = assay: Antimalarial activity against Plasmodium falciparum W2 assessed as reduction in parasite growth incubated for 48 to 50 hrs by microplate reader analysis; assay type: functional, organism-based
Plasmodium falciparum [5] = assay: Resistance index, ratio of IC50 for antimalarial activity against Plasmodium falciparum 3D7 to IC50 for antimalarial activity against Plasmodium falciparum W2; assay type: functional
Falcipain 2 = molecular target: T1, Falcipain 2 (Plasmodium falciparum, UniProt Q9N6S8); assay: Inhibition of Plasmodium falciparum FP2 using Z-Leu-Arg-AMC as substrate incubated for 30 mins by spectrofluorometry analysis
T1 sequence (Q9N6S8 whole entry): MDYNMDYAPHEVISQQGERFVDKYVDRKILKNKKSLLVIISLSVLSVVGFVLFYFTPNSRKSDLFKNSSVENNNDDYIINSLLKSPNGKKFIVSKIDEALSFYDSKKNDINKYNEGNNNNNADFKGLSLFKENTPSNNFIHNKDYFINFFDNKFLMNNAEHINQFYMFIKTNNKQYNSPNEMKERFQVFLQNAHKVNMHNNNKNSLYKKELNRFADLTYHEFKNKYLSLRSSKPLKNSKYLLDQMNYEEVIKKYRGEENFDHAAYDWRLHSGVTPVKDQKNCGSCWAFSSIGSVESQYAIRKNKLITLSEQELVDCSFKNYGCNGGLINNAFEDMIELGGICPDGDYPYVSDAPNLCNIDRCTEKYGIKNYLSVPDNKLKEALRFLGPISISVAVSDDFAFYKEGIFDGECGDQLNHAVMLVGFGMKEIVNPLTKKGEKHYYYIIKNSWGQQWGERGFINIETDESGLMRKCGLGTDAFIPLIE

Falcipain-3 = molecular target: T2, Falcipain-3 (Plasmodium falciparum 3D7, UniProt Q8IIL0); assay: Inhibition of Plasmodium falciparum FP3 using Z-Leu-Arg-AMC as substrate incubated for 30 mins by spectrofluorometry analysis
T2 sequence (Q8IIL0 whole entry): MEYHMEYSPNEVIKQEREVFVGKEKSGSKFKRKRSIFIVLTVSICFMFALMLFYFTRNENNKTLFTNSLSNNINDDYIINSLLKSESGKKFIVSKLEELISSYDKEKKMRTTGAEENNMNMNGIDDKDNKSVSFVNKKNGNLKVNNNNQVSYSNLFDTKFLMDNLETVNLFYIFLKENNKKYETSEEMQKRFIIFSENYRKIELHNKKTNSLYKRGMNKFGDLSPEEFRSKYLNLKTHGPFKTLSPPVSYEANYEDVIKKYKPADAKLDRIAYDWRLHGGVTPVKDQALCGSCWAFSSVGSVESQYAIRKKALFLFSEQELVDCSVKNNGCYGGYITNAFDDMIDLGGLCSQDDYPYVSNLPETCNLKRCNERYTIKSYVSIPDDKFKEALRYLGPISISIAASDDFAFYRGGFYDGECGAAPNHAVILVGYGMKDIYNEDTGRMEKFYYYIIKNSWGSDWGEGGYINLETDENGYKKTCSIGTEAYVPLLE

Plasmodium falciparum [6] = assay: Antimalarial activity against Plasmodium falciparum 3D7 assessed as decrease in development of early trophozoite stage at 3 times IC50 incubated for 48 hrs by Geimsa staining based analysis; assay type: functional, organism-based
Plasmodium falciparum [7] = assay: Antimalarial activity against Plasmodium falciparum 3D7 assessed as decrease in new ring formation at 3 times IC50 concentration incubated for 48 hrs by Geimsa staining based analysis; assay type: functional, organism-based
Vero = assay: Cytotoxicity against african green monkey Vero cells upto 1000 uM measured after 72 hrs by MTT assay; assay type: toxicity, cell-based; settings: chlorocebus sabaeus
A549 = assay: Anticancer activity against human A549 cells measured after 24 hrs by MTT assay; assay type: functional, cell-based; settings: A549, 24 h
[8] = Selectivity index, ratio of IC50 for cytotoxicity against human A549 cells to IC50 for antimalarial activity against Plasmodium falciparum 3D7; assay type: toxicity, cell-based; settings: read-out: Ratio IC50
[9] = Selectivity index, ratio of IC50 for cytotoxicity against human A549 cells to IC50 for antimalarial activity against Plasmodium falciparum W2; assay type: toxicity, cell-based; settings: read-out: Ratio IC50
[10] = Selectivity index, ratio of IC50 for cytotoxicity against african green monkey vero cells to IC50 for cytotoxicity against human A549 cells
Plasmodium falciparum [11] = assay: Antimalarial activity against Plasmodium falciparum 3D7 assessed as inhibition of parasite growth incubated for 72 hrs by confocal microscopy analysis; assay type: functional, organism-based; settings: 3D7, 72 h
Plasmodium falciparum [12] = assay: Antimalarial activity against Plasmodium falciparum Dd2 assessed as inhibition of parasite growth incubated for 72 hrs by confocal microscopy analysis; assay type: functional, organism-based; settings: Dd2, 72 h
Plasmodium falciparum [13] = assay: Antimalarial activity against ring stage Plasmodium falciparum 3D7 infected in human erythrocytes incubated for 48 to 50 hrs by YOYO-1 staining based FACS analysis; assay type: functional, organism-based; settings: 3D7, Erythrocyte

Compound	Activity (Erythrocyte)	pIC50 (Plasmodium falciparum [1])	selectivity ratio [2]	selectivity ratio [3]	pIC50 (Plasmodium falciparum [4])	Ratio IC50 (Plasmodium falciparum [5])	pIC50 (Falcipain 2)	pIC50 (Falcipain-3)	Activity (Vero)	pIC50 (A549)	selectivity ratio [8]	selectivity ratio [9]	Ratio IC50 [10]	other results
CCN(CC)CCCC(C)Nc1ccnc2cc(Cl)ccc12 (stereo not given) [CHLOROQUINE]	Non-Toxic													
COc1cccc(C(c2ccc(F)cc2)N2CCN(c3cnccn3)CC2)c1O (stereo not given)	Non-Toxic	< 4.90												
Oc1ccccc1C(c1ccc(C(F)(F)F)cc1)N1CCN(c2cnccn2)CC1 (stereo not given)	Non-Toxic	5.75	562	31.9	4.50	0.06	5.07	5.02	Non-Toxic	4.23	33.4	1.89	16.8	Activity (Plasmodium falciparum [6]): Active; Activity (Plasmodium falciparum [7]): Active
COc1cccc(C(c2ccc(Cl)c(Cl)c2)N2CCN(c3cnccn3)CC2)c1O (stereo not given)	Non-Toxic	5.34												
Cc1ccc(C(c2ccccc2O)N2CCN(c3cnccn3)CC2)cc1 (stereo not given)	Non-Toxic	5.42												
Oc1ccccc1C(c1ccc(F)c(Cl)c1)N1CCN(c2cnccn2)CC1 (stereo not given)	Non-Toxic	5.39												
COc1cccc(C(c2ccc(OC(F)(F)F)cc2)N2CCN(c3cnccn3)CC2)c1O (stereo not given)	Non-Toxic	5.46	286	459	5.66	1.6	4.94	4.84	Non-Toxic	4.33	13.5	21.6	21.23	
COc1cccc(C(c2ccc(F)c(F)c2)N2CCN(c3cnccn3)CC2)c1O (stereo not given)	Non-Toxic	4.87	74.1	129	5.11	1.73	4.61	4.56	Non-Toxic	3.69	15.1	26.1	4.92	
COc1cccc(C(c2ccc(C)cc2)N2CCN(c3cnccn3)CC2)c1O (stereo not given)	Non-Toxic	< 4.90												
Oc1ccccc1C(c1ccc(F)cc1)N1CCN(c2cnccn2)CC1 (stereo not given)	Non-Toxic													IC50 (Plasmodium falciparum [1]): Not Determined(Insoluble)
Oc1ccccc1C(c1ccc(Cl)c(Cl)c1)N1CCN(c2cnccn2)CC1 (stereo not given)	Non-Toxic	5.55	356	244	5.39	0.68	5.18	5.16	Non-Toxic	4.21	21.9	15	16.29	Activity (Plasmodium falciparum [6]): Active; Activity (Plasmodium falciparum [7]): Active
COc1ccc(C(c2cccc(OC)c2O)N2CCN(c3cnccn3)CC2)cc1 (stereo not given)	Non-Toxic	< 4.90												
FC(F)Oc1ccc(-c2nnc3cncc(OCCc4ccccc4)n23)cc1														pIC50 (Plasmodium falciparum [11]): 6.51; pIC50 (Plasmodium falciparum [12]): 6.27
COc1ccc(C(c2ccccc2O)N2CCN(c3cnccn3)CC2)cc1 (stereo not given)	Non-Toxic	4.76	58.1	467	5.67	8.04	4.51	4.47	Non-Toxic	3.29	29.9	240	1.95	Activity (Plasmodium falciparum [6]): Active; Activity (Plasmodium falciparum [7]): Active
COc1cccc(C(c2ccc(C(F)(F)F)cc2)N2CCN(c3cnccn3)CC2)c1O (stereo not given)	Non-Toxic	5.52	328	230	5.36	0.7	5.21	5.17	Non-Toxic	3.92	39.5	27.7	8.3	Activity (Plasmodium falciparum [6]): Active; Activity (Plasmodium falciparum [7]): Active
COc1cccc(C(c2ccc(F)c(Cl)c2)N2CCN(c3cnccn3)CC2)c1O (stereo not given)	Non-Toxic	5.14												
CC(C)C[C@H](NC(=O)[C@H]1O[C@@H]1C(=O)O)C(=O)NCCCCN=C(N)N [E-64]							7.26	6.93						
Oc1ccccc1C(c1ccc(F)c(F)c1)N1CCN(c2cnccn2)CC1 (stereo not given)	Non-Toxic	5.41												
Oc1ccccc1C(c1ccc(OC(F)(F)F)cc1)N1CCN(c2cnccn2)CC1 (stereo not given)	Non-Toxic	5.55	357	295	5.47	0.83	5.23	5.19	Non-Toxic	4.04	32.8	27.1	10.89	Activity (Plasmodium falciparum [6]): Active; Activity (Plasmodium falciparum [7]): Active
CCc1nc(N)nc(N)c1-c1ccc(Cl)cc1 [PYRIMETHAMINE]														pIC50 (Plasmodium falciparum [13]): 7.82
